As usually defined, the Cmax is the peak of the concentration-time curve. The term Tmax denotes the time from dosing to the highest level.

The structures appear in SMILES notation. Like-named read-outs stand apart in the source and are kept apart here.

One molecule from US9750701B2, “Pharmaceutical dosage form” (GRÜNENTHAL GMBH, priority 2008, dated 2017) can be followed below.

The series is described as follows: pharmacokinetic data of tapentadol formulation (blood plasma concentrations). The series is classed as in vivo, patients/test subjects. As to conditions: human, formulation containing tapentadol; for AUC(0-inf): read-out: AUC0-∞ (total area under the curve); for half-life: read-out: t1/2 (half-life) (converted). An excerpt: For the purposes of the description, the pharmacokinetic parameters, which may be determined from the blood plasma concentrations of the pharmacologically active compound (A), are defined as follows: […]
The above parameters are in each case stated as mean values of the individual values for all investigated patients/test subjects.
In a particularly preferred embodiment the pharmacologically active compound (A) is tapentadol or a physiologically acceptable salt thereof and the pharmaceutical dosage form according to the invention is bioequivalent to a formulation that contains tapentadol or a physiologically acceptable salt thereof in a dosage of 200 mg and 250 mg, respectively, and is characterized by the following pharmacokinetic data: […]

Consider `CC[C@@H](c1cccc(O)c1)[C@@H](C)CN(C)C` [tapentadol], for which, under “dosage 200 mg”, the Cmax was found to be 62.5 ng/mL, the time to peak (Tmax) was 5 h, the AUC(0-inf) came to 825 ng·h/mL and the half-life is 5.2 h. Besides, for the setting “dosage 250 mg”, the maximum concentration (Cmax) was 89.3 ng/mL, the Tmax was 5 h, the AUC(0-inf) is 1100 ng·h/mL and the half-life is 5.4 h.
